Laboratory results published in publication PMC10541425, “Targeting Toll-like receptor-driven systemic inflammation by engineering an innate structural fold into drugs” (Nature Communications, 2023).
Like-named read-outs stand apart in the source and are kept apart here. Residues, ends and D or L forms follow the SMILES beside them.

How the values were obtained:
[1] = in vitro; settings: human, THP1-XBlue-CD14 reporter cells, Cell viability
Protocol: (§5) Effects on NF-κB activation were assessed using THP1-XBlue-CD14 reporter cells (InvivoGen, San Diego, CA, USA). Briefly, 180,000 cells well^−1 were seeded in 96-well plates in phenol red RPMI media, supplemented with 10% (vv^−1) heat-inactivated FBS and 1% (vv^−1) Antibiotic-Antimycotic solution (AA). […] NF-κB activation was determined after 20 h of incubation according to the manufacturer’s instructions (InvivoGen, San Diego, CA, USA) by mixing 20 μL of supernatant with 180 μL of SEAP detection reagent (Quanti-BlueTM, InvivoGen, San Diego, CA, USA), followed by absorbance measurement at 600 nm. Data shown are mean values ± SD obtained from at least four independent experiments, all made in triplicate. In another set of experiments, the cells were stimulated with 100 ng mL^−1 of E. coli LPS, 1 μg mL^−1 S. aureus LTA, 1 μg mL^−1 E. coli PGN, 1 μg mL^−1 S. aureus PGN, or 10 μg mL^−1 S. cerevisiae zymosan in the presence or the absence of 10 μM of linear and stapled HVF18. The experiment was performed as described above.

[2] = target: T1, hCD14 (Homo sapiens, UniProt P08571, C306S); assay: Microscale thermophoresis, binding to CD14; settings: 10 mM Tris pH 7.4, read-out: Kd (µM) to CD14, MST
T1 construct: His-tag; non-native C-terminal linker with a protease-site-like motif, seen in the peptide map at 335-349 (C); made in house; host or cells: insect cells
T1 sequence (P08571 with tags, fused parts or gaps C306S limits assumed): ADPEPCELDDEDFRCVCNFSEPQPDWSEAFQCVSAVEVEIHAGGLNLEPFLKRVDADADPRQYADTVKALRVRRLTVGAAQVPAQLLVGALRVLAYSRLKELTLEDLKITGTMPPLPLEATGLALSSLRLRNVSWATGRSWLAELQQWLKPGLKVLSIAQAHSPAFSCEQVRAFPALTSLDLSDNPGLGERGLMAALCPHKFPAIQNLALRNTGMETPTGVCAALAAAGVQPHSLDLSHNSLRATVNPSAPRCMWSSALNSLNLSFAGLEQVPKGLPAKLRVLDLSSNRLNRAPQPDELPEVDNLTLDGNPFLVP
Protocol: Microscale thermophoresis (MST) was performed on a NanoTemper Monolith NT.115 apparatus (Nano Temper Technologies, Germany). A Monolith NT Protein labeling kit RED – NHS (Nano Temper Technologies, Germany) was used to label 20 μM of recombinant hCD14 according to the manufacturer’s protocol. […] The sample was then loaded into standard glass capillaries (Monolith NT Capillaries, Nano Temper Technologies), and MST analysis was performed (settings for the light-emitting diode and infrared laser were 80%).

[3] = test system: THP1-XBlue-CD14 reporter cells
Protocol: as §5

[4] = Cell viability of THP1-XBlue-CD14 reporter cells; settings: human; for viability at 20 h, 1 µM: 1 µM peptide; for viability at 20 h, 2 µM: 2 µM peptide; for viability at 20 h, 5 µM: 5 µM peptide; for viability at 20 h, 10 µM: 10 µM peptide; for viability at 20 h, 20 µM: 20 µM peptide
Protocol: as §5

[5] = target: T2, P. aeruginosa elastase (PE) (Pseudomonas aeruginosa, UniProt P14756); type: in vitro ADME
T2 construct: purchased Calbiochem, Merck, Darmstadt, Germany
T2 sequence (P14756 198-498): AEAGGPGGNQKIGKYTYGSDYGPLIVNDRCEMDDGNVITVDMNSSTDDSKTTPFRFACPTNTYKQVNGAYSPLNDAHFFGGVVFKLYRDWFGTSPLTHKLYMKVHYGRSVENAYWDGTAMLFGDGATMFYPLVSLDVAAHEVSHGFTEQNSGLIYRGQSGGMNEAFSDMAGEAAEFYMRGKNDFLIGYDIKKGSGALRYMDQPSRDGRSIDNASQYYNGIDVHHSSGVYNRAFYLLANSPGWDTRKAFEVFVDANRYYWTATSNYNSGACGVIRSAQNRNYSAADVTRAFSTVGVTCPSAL
Protocol: (§1) The peptide was pre-mixed with Buffer A (1:3) 5 min before being loaded on the column. Protease-digested peptides were analyzed by HPLC as described above. Samples from two different digestions were analyzed.
(§2) Peptides were resuspended in endotoxin-free water at a final concentration of 1 mM. […] All digestions were performed in three independent experiments.
(§3) Two micrograms of peptide from each condition were loaded on 10–20% Novex Tricine pre-cast gels (Invitrogen, Carlsbad, CA, USA). The run was performed at 100 V for 100 min. The gel was stained by using Coomassie Brilliant blue (Invitrogen, Carlsbad, CA, USA), and images were acquired with a Gel Doc Imager (Bio-Rad Laboratories, Hercules, CA, USA). Samples from three independent digestions were analyzed.
(§4) LC-MS/MS analysis was performed using an HFX Orbitrap MS system (Thermo Scientific, San Jose, CA, USA) equipped with a Dionnex 3000 Ultimate HPLC (Thermo Fisher, USA). Settings were used as previously described by Petruk et al.[55] with minor changes. […] The precursor tolerance was set to 10 ppm and 0.02 Da for the MSMS fragments, and no enzyme was selected, allowing unspecific cleavage. Samples from two independent digestions were analyzed.

[6] = CD analysis after exposure to 80 °C (conformational stability); type: physicochemical; settings: then CD, minima at 208 and 222 nm
[7] = target: T3, human neutrophil elastase (HNE) (Homo sapiens, UniProt P08246); assay: Protease degradation with human neutrophil elastase (SDS-PAGE, RP-HPLC, LC-MS/MS); type: in vitro ADME
T3 construct: purchased Calbiochem, Merck, Darmstadt, Germany
T3 sequence (P08246 30-267): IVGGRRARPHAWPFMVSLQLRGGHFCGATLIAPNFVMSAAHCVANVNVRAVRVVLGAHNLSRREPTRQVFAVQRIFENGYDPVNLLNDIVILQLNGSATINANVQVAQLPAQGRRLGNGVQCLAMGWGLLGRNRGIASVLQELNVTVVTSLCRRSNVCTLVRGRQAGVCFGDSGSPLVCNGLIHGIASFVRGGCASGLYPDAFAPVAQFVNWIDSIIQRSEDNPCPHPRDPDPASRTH
Protocol: as §1, §2, §3, §4

| Compound | viability at 20 h, 10 µM ([1]; LTA 1 µg/ml + peptide) [%] | viability at 20 h, 10 µM ([1]; PGN-SA 10 µg/ml + peptide) [%] | Cell viability, PGN-EB 1 µg/ml + peptide [3] | viability at 20 h, 1 µM ([4]; with LPS, replicate 1) [%] | viability at 20 h, 1 µM ([4]; with LPS, replicate 2) [%] | viability at 20 h, 1 µM ([4]; with LPS, replicate 3) [%] | viability at 20 h, 1 µM ([4]; with LPS, replicate 4) [%] | viability at 20 h, 2 µM ([4]; with LPS, replicate 1) [%] | viability at 20 h, 2 µM ([4]; with LPS, replicate 2) [%] | viability at 20 h, 2 µM ([4]; with LPS, replicate 3) [%] | viability at 20 h, 2 µM ([4]; with LPS, replicate 4) [%] | viability at 20 h, 5 µM ([4]; with LPS, replicate 1) [%] | viability at 20 h, 5 µM ([4]; with LPS, replicate 2) [%] | viability at 20 h, 5 µM ([4]; with LPS, replicate 3) [%] | viability at 20 h, 5 µM ([4]; with LPS, replicate 4) [%] | viability at 20 h, 10 µM ([4]; with LPS, replicate 1) [%] | viability at 20 h, 10 µM ([4]; with LPS, replicate 2) [%] | viability at 20 h, 10 µM ([4]; with LPS, replicate 3) [%] | viability at 20 h, 10 µM ([4]; with LPS, replicate 4) [%] | viability at 20 h, 20 µM ([4]; with LPS, replicate 1) [%] | further results |
| --- | --- | --- | --- | --- | --- | --- | --- | --- | --- | --- | --- | --- | --- | --- | --- | --- | --- | --- | --- | --- | --- |
| CC[C@H](C)[C@H](NC(=O)[C@H](Cc1c[nH]c2ccccc12)NC(=O)[C@H](CCCCN)NC(=O)[C@H](CCCCN)NC(=O)[C@H](CC(C)C)NC(=O)[C@H](CCCNC(=N)N)NC(=O)[C@H](Cc1ccccc1)NC(=O)[C@@H](NC(=O)[C@@H](N)Cc1cnc[nH]1)C(C)C)C(=O)N[C@@H](CCC(N)=O)C(=O)N[C@@H](CCCCN)C(=O)N[C@H](C(=O)N[C@H](C(=O)N[C@@H](CC(=O)O)C(=O)N[C@@H](CCC(N)=O)C(=O)N[C@@H](Cc1ccccc1)C(=O)NCC(=O)N[C@@H](CCC(=O)O)C(=O)O)[C@@H](C)CC)C(C)C [HVF18] (H-HVFRLKKWIQKVIDQFGE-OH) | 105 | 74.3 | 85.0457 | 79.5 | 76.5 | 83.4 | 78.1 | 94.1 | 84.3 | 83.2 | 88.3 | 107 | 97.5 | 80.5 | 82.3 | 89.5 | 92.1 | 82.5 | 103 | 90.6 | Kd ([2]; with NaCl (150 mM), measurement 1): 3.2 µM; Kd ([2]; with NaCl (150 mM), measurement 2): 2.5 µM; Kd ([2]; with NaCl (150 mM), measurement 3): 1.1 µM; Kd ([2]; with NaCl (150 mM), measurement 4): 2.7 µM; Kd ([2]; with NaCl (150 mM), measurement 5): 2.5 µM; Kd ([2]; with NaCl (150 mM), measurement 6): 1.6 µM; Kd ([2]; without NaCl, measurement 1): 8.3 µM; Kd ([2]; without NaCl, measurement 2): 6.2 µM; Kd ([2]; without NaCl, measurement 3): 5.9 µM; Kd ([2]; without NaCl, measurement 4): 8.7 µM; Kd ([2]; without NaCl, measurement 5): 7.5 µM; Kd ([2]; without NaCl, measurement 6): 2.1 µM; viability at 20 h, 20 µM ([4]; with LPS, replicate 2): 85.3%; viability at 20 h, 20 µM ([4]; with LPS, replicate 3): 77.4%; viability at 20 h, 20 µM ([4]; with LPS, replicate 4): 91.1%; viability at 20 h, 20 µM ([4]; without LPS, replicate 1): 99.3%; viability at 20 h, 20 µM ([4]; without LPS, replicate 2): 72.9%; viability at 20 h, 20 µM ([4]; without LPS, replicate 3): 84.9%; viability at 20 h, 20 µM ([4]; without LPS, replicate 4): 73.7% |
| CC[C@H](C)[C@H](NC(=O)[C@H](Cc1c[nH]c2ccccc12)NC(=O)[C@H](CCCCN)NC(=O)[C@H](CCCCN)NC(=O)[C@H](CC(C)C)NC(=O)[C@H](CCCNC(=N)N)NC(=O)[C@H](Cc1ccccc1)NC(=O)[C@@H](NC(=O)[C@@H](N)Cc1c[nH]cn1)C(C)C)C(=O)N[C@@]1(C)CCCC=CCCC[C@@](C)(C(=O)N[C@@H](CCC(N)=O)C(=O)N[C@@H](Cc2ccccc2)C(=O)NCC(=O)N[C@@H](CCC(=O)O)C(=O)O)NC(=O)[C@H]([C@@H](C)CC)NC(=O)[C@H](C(C)C)NC(=O)[C@H](CCCCN)NC1=O [sHVF18] | 91.3 | 55.8 | 75.0616 | 88.7 | 90.5 | 78.9 | 86.3 | 102 | 92.8 | 74.9 | 96.3 | 106 | 93.7 | 79.1 | 95 | 99.1 | 88.8 | 82.4 | 87.8 | 104 | Resistance to P. aeruginosa elastase (in words) ([5]; 0.2 µg PE, 0–18 h, SDS-PAGE, RP-HPLC, LC-MS/MS, versus linear peptide): improved resistance; Fragmentation seen by LC-MS/MS after PE digestion (in words) ([5]; 30 min and 3 h): no identified sHVF18 fragments; Cell viability, PGN-SA 10 µg/ml + peptide [3]: 69.8483; Cell viability, Zymosan 10 µg/ml + peptide [3]: 73.0816; viability at 20 h, 20 µM ([4]; with LPS, replicate 2): 70.9%; viability at 20 h, 20 µM ([4]; with LPS, replicate 3): 67.5%; viability at 20 h, 20 µM ([4]; with LPS, replicate 4): 77.9%; viability at 20 h, 20 µM ([4]; without LPS, replicate 1): 112%; viability at 20 h, 20 µM ([4]; without LPS, replicate 2): 69.7%; viability at 20 h, 20 µM ([4]; without LPS, replicate 3): 81.5%; viability at 20 h, 20 µM ([4]; without LPS, replicate 4): 90.5%; Conformational stability after exposure to 80 °C (CD analysis) [6]: still presented an α-helical spectrum; Fragmentation seen by LC-MS/MS after HNE digestion (in words) [7]: no identified sHVF18 fragments |
